# Test results from PubChem BioAssay (NCI).
#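 Cultured in 96-well plates, cells were exposed to test compound for 48 hours across five concentrations. GI50: concentration for 50% inhibition of growth. TGI marks complete inhibition of growth.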
# How the values were obtained:
# Experiment in all cases: DTP human tumour cell line panel, 48 h
# CAKI-1 renal = test system: CAKI-1 renal
# IGROV1 ovarian = test system: IGROV1 ovarian
# NCI-H226 lung = test system: NCI-H226 lung
# NCI-H460 lung = test system: NCI-H460 lung
# OVCAR-5 ovarian = test system: OVCAR-5 ovarian
# SF-295 CNS = test system: SF-295 CNS
# SK-MEL-28 melanoma = test system: SK-MEL-28 melanoma
# SK-MEL-5 melanoma = test system: SK-MEL-5 melanoma
# SNB-19 CNS = test system: SNB-19 CNS
# SW-620 colon = test system: SW-620 colon
SMILES,GI50 (CAKI-1 renal) [µM],TGI (CAKI-1 renal) [µM],GI50 (IGROV1 ovarian) [µM],TGI (IGROV1 ovarian) [µM],GI50 (NCI-H226 lung) [µM],TGI (NCI-H226 lung) [µM],GI50 (NCI-H460 lung) [µM],TGI (NCI-H460 lung) [µM],GI50 (OVCAR-5 ovarian) [µM],TGI (OVCAR-5 ovarian) [µM],GI50 (SF-295 CNS) [µM],TGI (SF-295 CNS) [µM],GI50 (SK-MEL-28 melanoma) [µM],TGI (SK-MEL-28 melanoma) [µM],GI50 (SK-MEL-5 melanoma) [µM],TGI (SK-MEL-5 melanoma) [µM],GI50 (SNB-19 CNS) [µM],TGI (SNB-19 CNS) [µM],GI50 (SW-620 colon) [µM],TGI (SW-620 colon) [µM]
OC(CNC1CCCC1)Cn1c2ccccc2c2ccccc21 (stereo not given),> 100,> 100,72.9,> 100,32.1,> 100,> 100,> 100,35.9,> 100,23.7,73.5,> 100,> 100,> 100,> 100,29.4,> 100,> 100,> 100
C=C(C)[C@H](O)C(O)CC(C)[C@@H]1CCC23CC12CCC1[C@@]2(C)CCC(OC(C)=O)C(C)(C)C2CC(OC2OC(COC(C)=O)C(O)C(O)C2O)[C@]13C (stereo not given in full),,12.1,,9.54,,11.2,,11.5,,13.9,,12.5,,13.3,,,,11.6,,12
Cc1cccc2c1C/C(=C1\CCc3c(C)cccc31)C2=O,,> 100,,> 100,,> 100,,> 100,,> 100,,> 100,,> 100,,> 100,,> 100,,> 100
COC1=CC(=O)[C@]2(C)[C@H](C1=O)C(C)[C@H]2c1ccccc1 (stereo not given in full),,> 100,,> 100,,> 100,,> 100,,> 100,,> 100,,> 100,,> 100,,> 100,,> 100
COc1cc([C@@H]2OC(=O)C3C2C(=O)O[C@H]3c2cc(OC)c(OC)c(OC)c2)cc(OC)c1OC (stereo not given in full),,,,> 100,,> 100,,> 100,,,,> 100,,> 100,,> 100,,> 100,,> 100
CN(C)CCNC(=O)c1cc2c3ccccc3[nH]c2c2ncccc12,0.515,12.3,1.14,19.1,9.8,39.6,4.17,18.4,20.6,68.3,,,15.3,29.9,6.05,20.1,14.7,93.2,4.24,24.9
CCOc1ccccc1NC(=O)C1=C(C)NC(C)=C(C(=O)Nc2ccccc2OCC)C1c1ccc(NC(C)=O)cc1,,> 100,,> 100,,> 100,,> 100,,> 100,,71.5,,> 100,,> 100,,> 100,,> 100
CCOC(=O)NC(=O)c1cn(CCN2CCN(C(=O)NCCCCCCNC(=O)N3CCN(CCn4cc(C(=O)NC(=O)OCC)c(=O)n(CCN(CC)CC)c4=O)CC3)CC2)c(=O)n(CCC(CC)CC)c1=O,,,,> 100,,,,> 100,,> 100,,> 100,,> 100,,> 100,,> 100,,> 100
CCOC(=O)C#Cc1c(CC(=O)OCC)nnn1[C@H]1O[C@@H](CO)[C@@H]2OC(C)(C)O[C@@H]21,1.71,3.15,16.1,36.6,1.79,3.26,15,33.2,12.1,27.3,43.6,> 100,3.33,11.4,15,28.4,33.9,> 100,1.88,3.78
COc1cc(-c2oc3c(OC)c(O)c(OC)c(O)c3c(=O)c2OC)ccc1O,,90.1,,65.9,,> 100,,> 100,,> 100,,> 100,,> 100,,> 100,,> 100,,> 100
C[CH2][Sn]([CH2]C)([O]C(=O)c1cccc(F)c1)[O][Sn]([CH2]C)([CH2]C)[O]C(=O)c1cccc(F)c1,11.7,24.1,> 100,> 100,18.8,33.8,33.8,> 100,25.4,50.9,18.7,36.9,16.7,30.5,31.7,> 100,20.2,39.5,17.2,30.9
c1ccc2c3c([nH]c2c1)C1(CCCCC1)c1c([nH]c2ccccc12)C31CCCCC1,,> 100,,> 100,,97.1,,> 100,,> 100,,56.8,,> 100,,85.2,,> 100,,> 100
N#C[S-].[Au+].c1ccc(CN2[CH-]N(Cc3ccccc3)C(c3ccccc3)=C2c2ccccc2)cc1,,,,,,,,,1.21,3.28,,,,,,,,,0.421,2.99
O=C1C(=O)c2ccccc2C(O)=C1CCCCCCCCC1CCCCC1,,57,,19.2,,,,15.9,,32.2,,,,35,,23.7,,25.1,,17.7
CC1(C)C2C/C(=C\c3ccccc3)C(=O)C1C2 (stereo not given),,> 100,,> 100,,,,> 100,,> 100,,> 100,,> 100,,> 100,,> 100,,> 100
CN1CCn2c(c(Sc3ccc(C(=O)NO)cc3)c3ccccc32)C1=O,3.86,11,1.82,3.85,1.78,3.9,2.19,6.58,2,5.67,,,1.94,4.94,1.7,3.15,2.34,9.99,1.86,5.14
Cc1cccc2c1C(=O)OC2(C)c1cccc2ccccc12 (stereo not given),,> 100,,,,57.2,,> 100,,> 100,,> 100,,> 100,,45.3,,> 100,,> 100
Cc1ccc(/C=C2\CCCC\C2=N\O)cc1,,> 100,,> 100,,,,> 100,,,,> 100,,> 100,,> 100,,> 100,,> 100

SMILES,GI50 (CAKI-1 renal) [µM],TGI (CAKI-1 renal) [µM],GI50 (IGROV1 ovarian) [µM],TGI (IGROV1 ovarian) [µM],GI50 (NCI-H226 lung) [µM],TGI (NCI-H226 lung) [µM],GI50 (NCI-H460 lung) [µM],TGI (NCI-H460 lung) [µM],GI50 (OVCAR-5 ovarian) [µM],TGI (OVCAR-5 ovarian) [µM],GI50 (SF-295 CNS) [µM],TGI (SF-295 CNS) [µM],GI50 (SK-MEL-28 melanoma) [µM],TGI (SK-MEL-28 melanoma) [µM],GI50 (SK-MEL-5 melanoma) [µM],TGI (SK-MEL-5 melanoma) [µM],GI50 (SNB-19 CNS) [µM],TGI (SNB-19 CNS) [µM],GI50 (SW-620 colon) [µM],TGI (SW-620 colon) [µM]
Clc1nc(Cl)c(Cc2ccccc2)c(Cl)n1,,,,46.7,,32.4,,,,38.2,,32,,26.6,,8.39,,33.3,,> 100
CSC1C(=O)c2ccccc2/C(=N/Nc2nc3ccccc3s2)C1C (stereo not given),8.85,20.1,0.648,4.22,,,11,25.7,14.5,29.6,19.7,> 50,,,1.6,9.78,19.9,> 50,12.9,34.1
COc1cc([N+](=O)[O-])c(OC)cc1-c1nc2sc(Cl)cn2c1/C=N/NC(=N)N/N=C/c1c(-c2cc(OC)c([N+](=O)[O-])cc2OC)nc2sc(Cl)cn12,4.33,23.8,,,,,2.57,7.13,1.71,3.16,,,3.19,> 100,1.66,3.12,,,1.85,3.55
c1ccc(SC(CCCCOC2CCCCO2)Sc2ccccc2)cc1 (stereo not given),,> 100,,> 100,,,,> 100,,> 100,,> 100,,> 100,,> 100,,> 100,,> 100
C/C(=N\O)C(CN1CCCCC1)C(c1ccccc1)c1c(O)c2ccccc2oc1=O (stereo not given),,> 100,,> 100,,> 100,,,,> 100,,> 100,,> 100,,> 100,,> 100,,> 100
[C-]#[N+]C(C)(C)C[C@H]1CC(C)C2CCC(C)C3([N+]#[C-])CCC(=C)C1[C@H]23 (stereo not given in full),,20.1,,47.4,,10.7,,,,8.49,,24.1,,> 50,,5,,17.5,,12.7
O=C(N/C(=C\c1ccc(Oc2ccc(Cl)c(Cl)c2)cc1)c1nc2ccccc2[nH]1)c1ccccc1,,47.9,,,,,,,,67.9,,29,,35.1,,30.4,,36.3,,33.7
CS/C(c1ccccc1)=[N+](/C)[O-],,> 100,,> 100,,,,99.4,,> 100,,> 100,,> 100,,> 100,,> 100,,> 100
CC(C)CCc1c(Cl)nc(Cl)nc1Cl,,,,37.5,,14.6,,39.7,,55,,34.4,,,,16.4,,39,,> 100
COc1cccc2c(=O)c3c(sc12)c(NCCN(C)C)nc1ccccc13,1.36,3.12,1.19,2.7,1.75,4.03,1.34,2.88,1.65,3.3,1.65,3.42,1.92,3.49,1.71,3.17,,,0.76,2.3
COc1cc2cccc(NC(=O)c3cc(OC)c(OC)c(OC)c3Br)c2cc1OC,,64.6,,44.6,,,,36.5,,51.9,,40.9,,41.8,,10.6,,> 100,,71
COc1cc(C(=O)CC2(O)C(=O)Nc3c(Cl)cc(Cl)cc32)ccc1O (stereo not given),,> 100,,,,> 100,,> 100,,> 100,,> 100,,> 100,,> 100,,> 100,,> 100
COC(=O)[C@@]1(O)C[C@H]2O[C@]1(C)n1c3ccccc3c3c4c(c5c6ccccc6n2c5c31)C(=O)NC4,0.0149,0.217,0.17,3.28,0.32,1.72,0.121,1.38,0.21,8.12,0.661,2.31,0.203,1.26,,,1.1,4.05,0.147,3.11
O=C(/C=C/c1ccc(C(F)(F)F)cc1)c1ccc(Nc2nc(NCCO)nc(N3CCOCC3)n2)cc1,2.54,15.6,2,4.42,2.32,5.89,2.15,4.44,1.74,3.97,2.67,7.6,3.25,11.5,3.16,10.2,,,1.92,4.05
COc1ccc2c(c1)OC(N)=C(C#N)C2c1ccc(F)cc1 (stereo not given),,,2.38,> 100,20.7,> 100,2.05,> 100,14.5,> 100,1.96,37.2,15.2,> 100,2.49,18.5,2.25,> 100,0.533,> 100
N=C(N)c1ccc(-c2ccc(-c3cccs3)s2)nc1,2.13,6.83,1.76,3.56,2,15.8,0.0334,0.449,1.26,5.68,,,1.7,3.65,1.8,3.78,3.48,20.8,1.85,3.93
O=C1C[C@H]2CC3(CC[C@H]2CN1)OCCO3,,> 100,,> 100,,,,> 100,,,,> 100,,> 100,,> 100,,> 100,,> 100
CC1/C(=N/Nc2ccc([N+](=O)[O-])cc2)CC2C3(C)CCC2(C(C)C(=O)O)C(=O)C13 (stereo not given),5.95,> 100,> 100,> 100,,,5.88,> 100,> 100,> 100,4.74,> 100,> 100,> 100,11.4,> 100,> 100,> 100,49.4,> 100
